Laboratory results published in patent US8101608B2, “Compounds and compositions as protein kinase inhibitors” (IRM LLC, a Delware Limited Corporation, priority 2004, dated 2012).

Assays:
trkC = target: T1, trkC (Homo sapiens, UniProt Q16288); experiment: Inhibition of cellular ETV6-NTRK3 dependent proliferation (Ba/F3 EN cells); type: cell-based, murine; settings: MTT, read-out: IC50 for TrkC
T1 construct: fused on or other part: P41212 (Transcription factor ETV6)
Experimental: The murine cell line used is the Ba/F3 hematopoietic progenitor cell line transformed with ETV6-NTRK3 cDNA (Ba/13 EN). These cells are maintained in RPMI/10% fetal calf serum (RPMI/FCS) supplemented with penicillin 50 μg/mL, streptomycin 50 μg/mL and L-glutamine […]. Untransformed Ba/F3 cells are similarly maintained with the addition of 10% of WEHI conditioned medium as a source of IL3.

Aurora-A = target: T2, Aurora-A (Homo sapiens, UniProt O14965); experiment: Kinase inhibition, Upstate KinaseProfiler radio-enzymatic filter binding assay; type: biochemical
T2 construct: purchased Upstate (KinaseProfiler panel)
T2 sequence (O14965 1-403): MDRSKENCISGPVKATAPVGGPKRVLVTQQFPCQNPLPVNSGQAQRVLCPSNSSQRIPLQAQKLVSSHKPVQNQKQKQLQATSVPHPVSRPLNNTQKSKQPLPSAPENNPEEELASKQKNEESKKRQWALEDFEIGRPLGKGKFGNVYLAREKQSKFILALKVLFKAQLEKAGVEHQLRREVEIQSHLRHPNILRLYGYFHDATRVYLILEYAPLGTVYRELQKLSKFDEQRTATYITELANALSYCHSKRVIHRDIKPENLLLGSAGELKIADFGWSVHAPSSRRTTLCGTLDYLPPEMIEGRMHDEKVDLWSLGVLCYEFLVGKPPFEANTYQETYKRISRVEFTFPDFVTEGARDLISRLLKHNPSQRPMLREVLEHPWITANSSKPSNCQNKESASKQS
Experimental: (§1) Percentage inhibition is calculated for each reaction.

c-RAF = target: T3, c-RAF (Homo sapiens, UniProt P04049); experiment: as above; type: biochemical
T3 construct: "active kinase (0.001-0.01 Units); fused on or other part: Probably an N-terminal GST tag (vendor's product)
T3 sequence (P04049 whole entry Y340D/Y341D, form open, the tested form may be a part): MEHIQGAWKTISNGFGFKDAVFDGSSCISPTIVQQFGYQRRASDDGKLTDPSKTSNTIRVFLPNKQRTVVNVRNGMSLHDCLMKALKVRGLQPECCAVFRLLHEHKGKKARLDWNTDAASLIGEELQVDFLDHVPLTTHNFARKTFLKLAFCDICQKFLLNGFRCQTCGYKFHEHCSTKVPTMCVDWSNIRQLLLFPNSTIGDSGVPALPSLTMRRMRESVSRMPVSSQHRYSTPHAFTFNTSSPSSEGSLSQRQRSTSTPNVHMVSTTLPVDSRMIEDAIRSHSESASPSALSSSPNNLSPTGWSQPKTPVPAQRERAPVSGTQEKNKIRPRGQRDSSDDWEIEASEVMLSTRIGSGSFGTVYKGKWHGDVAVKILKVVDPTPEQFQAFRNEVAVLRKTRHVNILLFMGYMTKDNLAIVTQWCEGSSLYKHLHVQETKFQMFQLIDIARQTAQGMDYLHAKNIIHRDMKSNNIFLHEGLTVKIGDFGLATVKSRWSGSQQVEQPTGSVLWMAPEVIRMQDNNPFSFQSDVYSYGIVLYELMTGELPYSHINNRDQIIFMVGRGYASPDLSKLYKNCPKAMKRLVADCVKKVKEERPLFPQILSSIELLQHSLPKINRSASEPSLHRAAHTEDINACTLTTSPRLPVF
Experimental: as §1

T1 sequence (Q16288 whole entry, change not shown, the tested form may be a part): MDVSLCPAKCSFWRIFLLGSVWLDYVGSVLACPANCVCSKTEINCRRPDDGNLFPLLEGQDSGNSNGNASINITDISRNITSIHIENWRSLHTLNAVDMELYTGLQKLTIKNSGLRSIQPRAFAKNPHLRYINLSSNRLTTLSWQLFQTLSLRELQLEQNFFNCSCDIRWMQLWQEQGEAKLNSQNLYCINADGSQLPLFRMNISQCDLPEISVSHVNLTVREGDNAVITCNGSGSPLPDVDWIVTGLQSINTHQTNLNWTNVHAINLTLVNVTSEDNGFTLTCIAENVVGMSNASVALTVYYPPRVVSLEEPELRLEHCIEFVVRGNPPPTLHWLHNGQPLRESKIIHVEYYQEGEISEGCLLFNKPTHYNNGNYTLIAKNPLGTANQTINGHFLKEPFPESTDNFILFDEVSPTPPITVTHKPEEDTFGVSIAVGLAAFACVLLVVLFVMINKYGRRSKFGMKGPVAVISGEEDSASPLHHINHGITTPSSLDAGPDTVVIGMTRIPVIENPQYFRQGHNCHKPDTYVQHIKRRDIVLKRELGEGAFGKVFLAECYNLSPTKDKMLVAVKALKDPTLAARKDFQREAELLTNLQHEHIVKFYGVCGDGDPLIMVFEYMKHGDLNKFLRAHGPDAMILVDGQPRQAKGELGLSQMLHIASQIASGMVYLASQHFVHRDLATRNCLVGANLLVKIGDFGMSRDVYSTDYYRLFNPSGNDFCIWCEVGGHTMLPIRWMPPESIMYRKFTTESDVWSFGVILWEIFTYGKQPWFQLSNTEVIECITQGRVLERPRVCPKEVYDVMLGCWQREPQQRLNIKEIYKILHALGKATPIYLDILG

Q: `Cc1cn(-c2cc(C(=O)Nc3cccc(Nc4ccc5c(c4)NC(=O)/C5=C/c4ccc[nH]4)c3)cc(C(F)(F)F)c2)cn1` [Example 1] was tested. Which GI50 (trkC) did it give?
A: 16.7 nM

Q: What about the IC50 (Aurora-A) of the same compound?
A: 15 nM

Q: And the IC50 (c-RAF)?
A: 116 nM
